# Data from PubChem BioAssay (NCI).
#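 The concentration for 50% growth inhibition is given as GI50. TGI marks complete inhibition of growth.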
# Assays:
# Assay in all cases: NCI anticancer screen, dose series, 384-well format
# 786-0 renal = test system: 786-0 renal
# A498 renal = test system: A498 renal
# A549 NSCLC = test system: A549 NSCLC
# ACHN renal = test system: ACHN renal
# BT-549 breast = test system: BT-549 breast
# CAKI-1 renal = test system: CAKI-1 renal
# CCRF-CEM leukemia = test system: CCRF-CEM leukemia
# DU-145 prostate = test system: DU-145 prostate
# EKVX NSCLC = test system: EKVX NSCLC
# HCT-116 colon = test system: HCT-116 colon
# HCT-15 colon = test system: HCT-15 colon
# HL-60(TB) leukemia = test system: HL-60(TB) leukemia
# HOP-62 NSCLC = test system: HOP-62 NSCLC
# HOP-92 NSCLC = test system: HOP-92 NSCLC
# HS 578T breast = test system: HS 578T breast
# HT29 colon = test system: HT29 colon
# IGROV1 ovarian = test system: IGROV1 ovarian
# K-562 leukemia = test system: K-562 leukemia
# KM12 colon = test system: KM12 colon
# LOX IMVI melanoma = test system: LOX IMVI melanoma
# M14 melanoma = test system: M14 melanoma
# MALME-3M melanoma = test system: MALME-3M melanoma
# MCF7 breast = test system: MCF7 breast
# MDA-MB-231 breast = test system: MDA-MB-231 breast
# MDA-MB-435 melanoma = test system: MDA-MB-435 melanoma
# MDA-MB-468 breast = test system: MDA-MB-468 breast
# MOLT-4 leukemia = test system: MOLT-4 leukemia
# NCI-H226 lung = test system: NCI-H226 lung
smiles,measurement,setting,value
Cn1c(CCCC(=O)O)nc2cc(N(CCCl)CCCl)ccc21,GI50,786-0 renal,90.6 µM
same,TGI,786-0 renal,> 100 µM
same,GI50,A498 renal,> 100 µM
same,TGI,A498 renal,> 100 µM
same,GI50,A549 NSCLC,> 100 µM
same,TGI,A549 NSCLC,> 100 µM
same,GI50,ACHN renal,68.3 µM
same,TGI,ACHN renal,> 100 µM
same,GI50,BT-549 breast,57 µM
same,TGI,BT-549 breast,> 100 µM
same,GI50,CAKI-1 renal,55.4 µM
same,TGI,CAKI-1 renal,> 100 µM
same,GI50,CCRF-CEM leukemia,17.9 µM
same,TGI,CCRF-CEM leukemia,32.4 µM
same,GI50,DU-145 prostate,> 100 µM
same,TGI,DU-145 prostate,> 100 µM
same,GI50,EKVX NSCLC,> 100 µM
same,TGI,EKVX NSCLC,> 100 µM
same,GI50,HCT-116 colon,61.3 µM
same,TGI,HCT-116 colon,> 100 µM
same,GI50,HCT-15 colon,> 100 µM
same,TGI,HCT-15 colon,> 100 µM
same,GI50,HL-60(TB) leukemia,17.3 µM
same,TGI,HL-60(TB) leukemia,33.2 µM
same,GI50,HOP-62 NSCLC,42 µM
same,TGI,HOP-62 NSCLC,> 100 µM
same,GI50,HOP-92 NSCLC,> 100 µM
same,TGI,HOP-92 NSCLC,> 100 µM
same,GI50,HS 578T breast,> 100 µM
same,TGI,HS 578T breast,> 100 µM
same,GI50,HT29 colon,> 100 µM
same,TGI,HT29 colon,> 100 µM
same,GI50,IGROV1 ovarian,> 100 µM
same,TGI,IGROV1 ovarian,> 100 µM
same,GI50,K-562 leukemia,> 100 µM
same,TGI,K-562 leukemia,> 100 µM
same,GI50,KM12 colon,> 100 µM
same,TGI,KM12 colon,> 100 µM
same,GI50,LOX IMVI melanoma,88.3 µM
same,TGI,LOX IMVI melanoma,> 100 µM
same,GI50,M14 melanoma,55.5 µM
same,TGI,M14 melanoma,> 100 µM
same,GI50,MALME-3M melanoma,> 100 µM
same,TGI,MALME-3M melanoma,> 100 µM
same,GI50,MCF7 breast,71.3 µM
same,TGI,MCF7 breast,> 100 µM
same,GI50,MDA-MB-231 breast,> 100 µM
same,TGI,MDA-MB-231 breast,> 100 µM
same,GI50,MDA-MB-435 melanoma,> 100 µM
same,TGI,MDA-MB-435 melanoma,> 100 µM
same,GI50,MDA-MB-468 breast,11.9 µM
same,TGI,MDA-MB-468 breast,32.8 µM
same,GI50,MOLT-4 leukemia,3.2 µM
same,TGI,MOLT-4 leukemia,10.3 µM
same,GI50,NCI-H226 lung,93.1 µM
